Data reported in US20130109682A1, “CYCLIC ETHER COMPOUNDS USEFUL AS KINASE INHIBITORS” (NOVARTIS AG, priority 2010, published 2013).

Key:
PIM2 = PIM2 (Homo sapiens, UniProt Q9P1W9); assay: Pim 2 AlphaScreen assay (high ATP); type: biochemical; details: read-out: Pim2 IC50
Method: Pim1, Pim2, Pim3 AlphaScreen Assay Pim 1, Pim 2 & Pim 3 AlphaScreen assays using high ATP (11-125×ATP Km) were used to determine the biochemical activity of the inhibitors. The activity of Pim 1, Pim 2, & Pim 3 is measured using a homogeneous bead based system quantifying the amount of phosphorylated peptide substrate resulting from kinase-catalyzed phosphoryl transfer to a peptide substrate. Compounds to be tested are dissolved in 100% DMSO and directly distributed to a white 384-well plate at […] per well. To start the reaction, 5 μl of 100 nM Bad peptide (Biotin-AGAGRSRHSSYPAGT —OH) and ATP (concentrations described below) in assay buffer (50 mM Hepes, pH=7.5, 5 mM MgCl2, 0.05% BSA, 0.01% Tween-20, 1 mM DTT) is added to each well. This is followed by the addition of 5 μl/well of Pim 1, Pim 2 or Pim 3 kinase in assay buffer (concentrations described below). Final assay concentrations (described below) are in 2.5% DMSO. The reactions are performed for ˜2 hours, then stopped by the addition of 10 μl of 0.75 μg/ml anti-phospho Ser/Thr antibody (Cell Signaling), 10 μg/ml Protein A AlphaScreen beads (Perkin Elmer), and 10 μg/ml streptavidin coated AlphaScreen beads in stop/detection buffer (50 mM EDTA, 95 mM Tris, pH=7.5, 0.01% Tween-20). The stopped reactions are incubated overnight in the dark. The phosphorylated peptide is detected via an […] initiated chemiluminescence/fluorescence cascade using the Envision plate reader (Perkin Elmer).
IC50, the half maximal inhibitory concentration, represents the concentration of a test compound that is required for 50% inhibition of its target in vitro under the described assay conditions.

GSK3β = GSK3β (Homo sapiens, UniProt P49841); assay: GSK3β ATP depletion assay; type: biochemical; details: ATP depletion assay; read-out: GSK3b IC50
Outline: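 Kinase activity is read as ATP consumption: luciferase luminescence reports the ATP remaining once roughly half of the 2 μM ATP is used. Reaction mix: 5 nM GSK3β, 10 μM b-CREB peptide, 50 mM Tris pH 7.5, 15 mM MgCl2, 1 mM DTT, 0.1% BSA, 2.5% DMSO. Enzyme and peptide are preincubated 15 min before ATP is added.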

Sequence of PIM2 (Q9P1W9 whole entry): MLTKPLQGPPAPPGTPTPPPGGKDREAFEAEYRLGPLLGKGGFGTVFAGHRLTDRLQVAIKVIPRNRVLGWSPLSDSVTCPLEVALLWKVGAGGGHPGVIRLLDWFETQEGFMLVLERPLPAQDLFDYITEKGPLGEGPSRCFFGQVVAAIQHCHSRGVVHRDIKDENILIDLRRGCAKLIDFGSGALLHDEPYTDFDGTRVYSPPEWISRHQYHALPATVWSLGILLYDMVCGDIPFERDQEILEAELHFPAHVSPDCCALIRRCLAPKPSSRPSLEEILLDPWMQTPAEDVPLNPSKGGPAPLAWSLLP
Sequence of GSK3β (P49841 whole entry, species assumed): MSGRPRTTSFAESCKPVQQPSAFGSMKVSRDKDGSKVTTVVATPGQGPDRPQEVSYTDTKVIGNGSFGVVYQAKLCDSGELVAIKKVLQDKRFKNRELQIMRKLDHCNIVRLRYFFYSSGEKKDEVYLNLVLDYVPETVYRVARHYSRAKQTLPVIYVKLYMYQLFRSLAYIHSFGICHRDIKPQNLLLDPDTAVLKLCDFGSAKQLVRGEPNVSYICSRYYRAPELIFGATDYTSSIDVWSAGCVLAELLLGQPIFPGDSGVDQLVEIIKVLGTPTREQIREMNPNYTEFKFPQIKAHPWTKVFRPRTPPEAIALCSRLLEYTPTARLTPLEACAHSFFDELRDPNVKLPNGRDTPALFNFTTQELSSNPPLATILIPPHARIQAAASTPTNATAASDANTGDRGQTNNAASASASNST

| SMILES | IC50 (PIM2) | IC50 (GSK3β) |
| --- | --- | --- |
| C[C@]1(O)[C@@H](N)C[C@H](c2ccncc2NC(=O)c2ccc(F)c(-c3c(F)cccc3F)n2)OC12CC2 [Example 287, N-(4-((5R,7S,8S)-7-amino-8-hydroxy-8-methyl-4-oxaspiro[2.5]octan-5-yl)pyridin-3-yl)-6-(2,6-difluorophenyl)-5-fluoropicolinamide] | 388 nM | 1500 nM |
| CC(C)[C@H]1O[C@@H](c2ccncc2NC(=O)c2ccnc(-n3c(F)cccc3=O)n2)C[C@@H](N)[C@@H]1O [Example 310, N-(4-((2R,4R,5S,6R)-4-amino-5-hydroxy-6-isopropyltetrahydro-2H-pyran-2-yl)pyridin-3-yl)-2-(6-fluoro-2-oxopyridin-1(2H)-yl)pyrimidine-4-carboxamide] | 6940 nM | 3310 nM |
| C[C@@]1(O)[C@H](N)C[C@@H](c2ccncc2NC(=O)c2ccc(F)c(-c3c(F)cccc3F)n2)OC12CC2 [Example 288, N-(4-((5S,7R,8R)-7-amino-8-hydroxy-8-methyl-4-oxaspiro[2.5]octan-5-yl)pyridin-3-yl)-6-(2,6-difluorophenyl)-5-fluoropicolinamide] | 272 nM | 16300 nM |
| CC(C)[C@H]1O[C@@H](c2ccncc2NC(=O)c2ccnc(-n3ccc(=O)cc3)n2)C[C@@H](N)[C@@H]1O [Example 304, N-(4-((2R,4R,5S,6R)-4-amino-5-hydroxy-6-isopropyltetrahydro-2H-pyran-2-yl)pyridin-3-yl)-2-(4-oxopyridin-1(4H)-yl)pyrimidine-4-carboxamide] | > 25000 nM | > 25000 nM |
| CC(C)[C@H]1O[C@@H](c2ccncc2NC(=O)c2ccc(F)c(-c3ccc(S(C)(=O)=O)cc3)n2)C[C@@H](N)[C@@H]1O [Example 306, N-(4-((2R,4R,5S,6R)-4-amino-5-hydroxy-6-isopropyltetrahydro-2H-pyran-2-yl)pyridin-3-yl)-5-fluoro-6-(4-(methylsulfonyl)phenyl)picolinamide] | 1660 nM | 2820 nM |
| CC(C)[C@H]1O[C@@H](c2ccncc2NC(=O)c2ccc(F)c(-c3cccc(S(C)(=O)=O)c3)n2)C[C@@H](N)[C@@H]1O [Example 312, N-(4-((2R,4R,5S,6R)-4-amino-5-hydroxy-6-isopropyltetrahydro-2H-pyran-2-yl)pyridin-3-yl)-5-fluoro-6-(3-(methylsulfonyl)phenyl)picolinamide] | 2480 nM | > 25000 nM |
| CC(C)[C@H]1O[C@@H](c2ccncc2NC(=O)c2ccc(F)c(-c3cnc4[nH]ccc4c3)n2)C[C@@H](N)[C@@H]1O [Example 295, N-(4-((2R,4R,5S,6R)-4-amino-5-hydroxy-6-isopropyltetrahydro-2H-pyran-2-yl)pyridin-3-yl)-5-fluoro-6-(1H-pyrrolo[2,3-b]pyridin-5-yl)picolinamide] | 345 nM | 4300 nM |
| CC[C@@H]1O[C@H](c2ccncc2NC(=O)c2ccc(F)c(-c3c(F)cccc3F)n2)C[C@H](O)[C@@]1(C)O [Example 163, 6-(2,6-difluorophenyl)-N-(4-((2S,4S,5R,6S)-6-ethyl-4,5-dihydroxy-5-methyltetrahydro-2H-pyran-2-yl)pyridin-3-yl)-5-fluoropicolinamide] | 7490 nM |  |
| CC(C)[C@H]1C[C@@H](N)C[C@@H](c2ccncc2NC(=O)c2ccc(F)c(-c3c(F)cc(S(C)(=O)=O)cc3F)n2)O1 [Example 303, N-(4-((2S,4R,6R)-4-amino-6-isopropyltetrahydro-2H-pyran-2-yl)pyridin-3-yl)-6-(2,6-difluoro-4-(methylsulfonyl)phenyl)-5-fluoropicolinamide] | 1250 nM | 10300 nM |

These reach a lower IC50 (PIM2). Values come first.

| IC50 (PIM2) | IC50 (GSK3β) | SMILES |
| --- | --- | --- |
| 84.6 nM | 2300 nM | C[C@H]1O[C@@H](c2ccncc2NC(=O)c2ccc(F)c(-c3ccc(N)nc3F)n2)C[C@@H](N)[C@]1(C)O [Example 311, 6′-amino-N-(4-((2R,4R,5S,6R)-4-amino-5-hydroxy-5,6-dimethyltetrahydro-2H-pyran-2-yl)pyridin-3-yl)-2′,3-difluoro-2,3′-bipyridine-6-carboxamide] |
| 50.1 nM | 3420 nM | CC(=O)Nc1ccc(F)c(-c2nc(C(=O)Nc3cnccc3C3C[C@@H](N)[C@H](O)[C@@H](C(C)C)O3)ccc2F)c1F (stereo in doubt) [Example 307, 6-(3-acetamido-2,6-difluorophenyl)-N-(4-((2S,4R,5S,6R)-4-amino-5-hydroxy-6-isopropyltetrahydro-2H-pyran-2-yl)pyridin-3-yl)-5-fluoropicolinamide] |
| 234 nM | 4940 nM | CC1(C)C[C@@H](N)C[C@H](c2ccncc2NC(=O)c2ccc(F)c(-c3c(F)cccc3F)n2)O1 [Example 298, N-(4-((2R,4S)-4-amino-6,6-dimethyltetrahydro-2H-pyran-2-yl)pyridin-3-yl)-6-(2,6-difluorophenyl)-5-fluoropicolinamide] |
| 27.1 nM | 548 nM | CC(C)(C)[C@@H]1O[C@H](c2ccncc2NC(=O)c2ccc(F)c(-c3c(F)cccc3F)n2)C[C@@H](N)[C@H]1O [Example 279, N-(4-((2S,4R,5R,6S)-4-amino-6-(tert-butyl)-5-hydroxytetrahydro-2H-pyran-2-yl)pyridin-3-yl)-6-(2,6-difluorophenyl)-5-fluoropicolinamide] |
| 159 nM | 20700 nM | CC(C)[C@H]1C[C@@H](N)C[C@@H](c2ccncc2NC(=O)c2ccc(F)c(-c3c(F)cccc3F)n2)O1 [Example 301, N-(4-((2S,4R,6R)-4-amino-6-isopropyltetrahydro-2H-pyran-2-yl)pyridin-3-yl)-6-(2,6-difluorophenyl)-5-fluoropicolinamide] |
| 70.7 nM | 9700 nM | CC(C)(C)[C@H]1O[C@@H](c2ccncc2NC(=O)c2ccc(F)c(-c3c(F)cccc3F)n2)C[C@H](N)[C@@H]1O [Example 278, N-(4-((2R,4S,5S,6R)-4-amino-6-(tert-butyl)-5-hydroxytetrahydro-2H-pyran-2-yl)pyridin-3-yl)-6-(2,6-difluorophenyl)-5-fluoropicolinamide] |
| 131 nM | 8120 nM | CC(C)[C@H]1O[C@@H](c2ccncc2NC(=O)c2ccc(F)c(-c3ccccc3)n2)C[C@@H](N)[C@@H]1O [Example 309, N-(4-((2R,4R,5S,6R)-4-amino-5-hydroxy-6-isopropyltetrahydro-2H-pyran-2-yl)pyridin-3-yl)-5-fluoro-6-phenylpicolinamide] |
| 154 nM | 950 nM | CC(C)[C@H]1O[C@@H](c2ccncc2NC(=O)c2ccnc(-c3c(F)cccc3F)n2)C[C@@H](N)[C@@H]1O [Example 293, N-(4-((2R,4R,5S,6R)-4-amino-5-hydroxy-6-isopropyltetrahydro-2H-pyran-2-yl)pyridin-3-yl)-2-(2,6-difluorophenyl)pyrimidine-4-carboxamide] |
| 87.4 nM | 12500 nM | CC[C@H]1OC(c2ccncc2NC(=O)c2ccc(F)c(-c3c(F)cc(S(C)(=O)=O)cc3F)n2)C[C@@H](N)[C@]1(C)O (stereo in doubt) [Example 283, N-(4-((2S,4R,5S,6R)-4-amino-6-ethyl-5-hydroxy-5-methyltetrahydro-2H-pyran-2-yl)pyridin-3-yl)-6-(2,6-difluoro-4-(methylsulfonyl)phenyl)-5-fluoropicolinamide] |
| 68.5 nM | 18300 nM | CC(C)C(=O)Nc1ccc(F)c(-c2nc(C(=O)Nc3cnccc3[C@H]3C[C@@H](N)[C@H](O)[C@@H](C(C)C)O3)ccc2F)c1F [Example 308, N-(4-((2R,4R,5S,6R)-4-amino-5-hydroxy-6-isopropyltetrahydro-2H-pyran-2-yl)pyridin-3-yl)-6-(2,6-difluoro-3-isobutyramidophenyl)-5-fluoropicolinamide] |
| 59.1 nM | 619 nM | CC[C@]1(O)[C@H](N)CC(c2ccncc2NC(=O)c2ccc(F)c(-c3c(F)cc(S(C)(=O)=O)cc3F)n2)O[C@@H]1C (stereo in doubt) [Example 284, N-(4-((2S,4R,5S,6R)-4-amino-5-ethyl-5-hydroxy-6-methyltetrahydro-2H-pyran-2-yl)pyridin-3-yl)-6-(2,6-difluoro-4-(methylsulfonyl)phenyl)-5-fluoropicolinamide] |
